In the NIST ThermoML archive (doi:10.1016/j.jct.2004.12.008):
Numbers after ± are expanded uncertainties.

Test: xn = mol fraction of the nth substance listed
Settings: 101 kPa, Liquid

O=[N+]([O-])c1ccccc1 [nitrobenzene] + CCc1ccccc1
Settings	mass density [kg/m3]
293.15 K, x2 = 0	1202.95 ± 18
293.15 K, x2 = 0.0478	1184.56 ± 17
293.15 K, x2 = 0.1275	1154.51 ± 15
293.15 K, x2 = 0.1842	1133.58 ± 14
293.15 K, x2 = 0.2576	1107.04 ± 12
293.15 K, x2 = 0.3238	1083.6 ± 11
293.15 K, x2 = 0.4023	1056.42 ± 8.8
293.15 K, x2 = 0.4578	1037.57 ± 7.6
293.15 K, x2 = 0.5139	1018.83 ± 6.4
293.15 K, x2 = 0.5813	996.7 ± 5.5
293.15 K, x2 = 0.6423	977.03 ± 6.7
293.15 K, x2 = 0.6931	960.9 ± 7.8
293.15 K, x2 = 0.7592	940.24 ± 9.1
293.15 K, x2 = 0.8343	917.18 ± 11
293.15 K, x2 = 0.8824	902.65 ± 12
293.15 K, x2 = 0.9587	879.94 ± 13
303.15 K, x2 = 0	1193.56 ± 18
303.15 K, x2 = 0.054	1172.67 ± 16
303.15 K, x2 = 0.1213	1147.16 ± 15
303.15 K, x2 = 0.1983	1118.67 ± 13
303.15 K, x2 = 0.2489	1100.34 ± 12
303.15 K, x2 = 0.3138	1077.25 ± 10
303.15 K, x2 = 0.3854	1052.32 ± 8.6
303.15 K, x2 = 0.4428	1032.74 ± 7.3
303.15 K, x2 = 0.5098	1010.3 ± 5.9
303.15 K, x2 = 0.5721	989.85 ± 5.9
303.15 K, x2 = 0.6219	973.76 ± 6.9
303.15 K, x2 = 0.6839	954.06 ± 8.2
303.15 K, x2 = 0.7429	935.62 ± 9.4
303.15 K, x2 = 0.8013	917.67 ± 11
303.15 K, x2 = 0.8632	898.94 ± 12
303.15 K, x2 = 0.9328	878.24 ± 13
313.15 K, x2 = 0	1183.37 ± 17
313.15 K, x2 = 0.0538	1162.71 ± 16
313.15 K, x2 = 0.1387	1130.89 ± 14
313.15 K, x2 = 0.1932	1110.93 ± 12
313.15 K, x2 = 0.2378	1094.87 ± 11
313.15 K, x2 = 0.2947	1074.72 ± 10
313.15 K, x2 = 0.3571	1053.04 ± 8.6
313.15 K, x2 = 0.4139	1033.68 ± 7.4
313.15 K, x2 = 0.4917	1007.73 ± 5.7
313.15 K, x2 = 0.5523	987.93 ± 6
313.15 K, x2 = 0.6139	968.18 ± 7.3
313.15 K, x2 = 0.6731	949.53 ± 8.5
313.15 K, x2 = 0.7248	933.5 ± 9.6
313.15 K, x2 = 0.7932	912.63 ± 11
313.15 K, x2 = 0.8536	894.54 ± 12
313.15 K, x2 = 0.9248	873.58 ± 13
323.15 K, x2 = 0	1172.38 ± 16
323.15 K, x2 = 0.0617	1149.22 ± 15
323.15 K, x2 = 0.1482	1117.58 ± 13
323.15 K, x2 = 0.2213	1091.54 ± 11
323.15 K, x2 = 0.2787	1071.53 ± 9.8
323.15 K, x2 = 0.3234	1056.2 ± 8.8
323.15 K, x2 = 0.3781	1037.74 ± 7.6
323.15 K, x2 = 0.4344	1019.07 ± 6.4
323.15 K, x2 = 0.4822	1003.47 ± 5.4
323.15 K, x2 = 0.5339	986.86 ± 6.1
323.15 K, x2 = 0.592	968.49 ± 7.3
323.15 K, x2 = 0.6739	943.12 ± 8.9
323.15 K, x2 = 0.7429	922.2 ± 10
323.15 K, x2 = 0.8137	901.15 ± 12
323.15 K, x2 = 0.8735	883.68 ± 13
323.15 K, x2 = 0.9572	859.66 ± 14
333.15 K, x2 = 0	1160.59 ± 16
333.15 K, x2 = 0.0439	1144.65 ± 14
333.15 K, x2 = 0.1249	1115.84 ± 13
333.15 K, x2 = 0.1892	1093.51 ± 11
333.15 K, x2 = 0.2599	1069.48 ± 9.7
333.15 K, x2 = 0.3389	1043.25 ± 8
333.15 K, x2 = 0.4042	1022.06 ± 6.6
333.15 K, x2 = 0.4672	1002.01 ± 5.3
333.15 K, x2 = 0.5243	984.15 ± 6.2
333.15 K, x2 = 0.5902	963.91 ± 7.6
333.15 K, x2 = 0.6645	941.54 ± 9
333.15 K, x2 = 0.7309	921.93 ± 10
333.15 K, x2 = 0.8021	901.28 ± 12
333.15 K, x2 = 0.8623	884.12 ± 13
333.15 K, x2 = 0.8932	875.4 ± 13
333.15 K, x2 = 0.9621	856.21 ± 15
343.15 K, x2 = 0	1148 ± 15
343.15 K, x2 = 0.0535	1129.57 ± 14
343.15 K, x2 = 0.1122	1109.7 ± 12
343.15 K, x2 = 0.1834	1086.08 ± 11
343.15 K, x2 = 0.2478	1065.16 ± 9.4
343.15 K, x2 = 0.3044	1047.11 ± 8.2
343.15 K, x2 = 0.3782	1024 ± 6.8
343.15 K, x2 = 0.4519	1001.42 ± 5.3
343.15 K, x2 = 0.513	983.04 ± 6.3
343.15 K, x2 = 0.5801	963.22 ± 7.6
343.15 K, x2 = 0.6529	942.11 ± 9
343.15 K, x2 = 0.7238	921.93 ± 10
343.15 K, x2 = 0.7932	902.5 ± 12
343.15 K, x2 = 0.852	886.31 ± 13
343.15 K, x2 = 0.8932	875.09 ± 13
343.15 K, x2 = 0.9423	861.85 ± 14
353.15 K, x2 = 0	1134.61 ± 14
353.15 K, x2 = 0.0723	1111.4 ± 12
353.15 K, x2 = 0.1298	1093.3 ± 11
353.15 K, x2 = 0.1984	1072.07 ± 9.8
353.15 K, x2 = 0.2584	1053.83 ± 8.7
353.15 K, x2 = 0.3133	1037.4 ± 7.6
353.15 K, x2 = 0.3891	1015.12 ± 6.2
353.15 K, x2 = 0.4501	997.51 ± 5.4
353.15 K, x2 = 0.524	976.53 ± 6.8
353.15 K, x2 = 0.5818	960.38 ± 7.8
353.15 K, x2 = 0.663	938.08 ± 9.3
353.15 K, x2 = 0.7483	915.1 ± 11
353.15 K, x2 = 0.7964	902.32 ± 12
353.15 K, x2 = 0.8423	890.26 ± 12
353.15 K, x2 = 0.8893	878.02 ± 13
353.15 K, x2 = 0.9529	861.65 ± 14
